According to patent US20240052317A1, “Methods for Differentiating Stromal Cells or Pericytes” (Lung Biotechnology PBC, priority 2022, published 2024):
Structures can show the parent of a compound that is named as a salt.

Tested on: human pulmonary artery endothelial cells (HPAEC)
Test: Tube formation assay of test differentiated cells co-cultured with HPAEC
Format: cell-based
Settings: co-culture of HPAEC and test differentiated cells, 1 μM imatinib mesylate, FIG. 2
Protocol: Next, test differentiated cells were further characterized with a tube formation assay using the following protocol. Test differentiated cells were co-cultured with human pulmonary artery endothelial cells (HPAEC) with or without 1 μM imatinib mesylate to inhibit angiogenesis, and tube formation was observed. Specifically, the wells of 96-well plates (Costar, Product No. 387) were coated with 30 μL of Matrigel® GFR. Plates were spun for 1 minute at 1,500 rotations per minute (RPM) and incubated for 30 minutes at 30° C. Cells were then lifted from culture plates, counted and resuspended in DMEM/F12 media such that 30 μL of media was available for each well. Each well received 30,000 HPAEC and 5,000 differentiated cells.
Green labeling of HPAEC was performed using Nuclight Green Lentivirus, Essen/Sartorius #4475. 100 μL of transfection reagent was added to 5 mL of media and mixed. In another 5 mL of media, 10 μL of needed lentivirus was added and mixed. Both 5 mL preparations were then added together, mixed, and added to an approximately 70% confluent plate of HPAEC or pericytes. Plates were allowed grow overnight in incubator.
Media and lentivirus preparation was removed and replaced with fresh media, and plates were incubated overnight. Plates were incubated for one week, using 1 μg of puromycin in the media for daily media changes […]

## Cc1ccc(NC(=O)c2ccc(CN3CCN(C)CC3)cc2)cc1Nc1nccc(-c2cccnc2)n1 [imatinib mesylate]
  tube formation and co-localization with HPAEC: did not
